Tested on: gene expression in the kidney
Assay: GeneChip microarray survey of E2 regulated gene expression, kidney
Details: for E2: Study 2 ERbKO; for Study 1 E2 Expr (/evansm/Kidney, mouse/Study 1, U74v2/KO E2 kidney (81038)) / E2 Expr (/evansm/Kidney, mouse/Study 2, U74v2/ER bKO kidney E2 (82412)): ERbKO
Description: FIG. 1 depicts a pattern analysis generated by a GeneChip microarray analysis. […] Two hours following the final dose, the mice were euthanized and 13 tissues removed for RNA preparation. Two independent studies were performed, with total RNA pooled from two groups of three animals for each condition. Gene expression was quantified by GeneChip microarrays using murine U74 sub A arrays. Data were analyzed for patterns indicating either ERα or ERβ dependent regulation as shown. […] The number of genes in each tissue that matched the theoretical induction (↑) or repression (↓) patterns for ERα or ERβ are indicated.
FIGS. 2A-2C show a series of bar graphs showing gene expression levels of known genes regulated in the kidney in an ERα pattern. […] Expression was measured in two independent sets of animals, with two groups of animals for each treatment in each study. A gene name abbreviation is shown above each graph, with the corresponding Unigene designation shown below.
One week later, the animals were ovariectomized.
GeneChip—Total RNA was prepared separately from each individual organ by using Trizol (Invitrogen) followed by subsequent repurification on Rneasy columns (Qiagen). In general, two pools of RNA were created using equal amounts of RNA from three mice. For small organs such as pituitary, an equal amount of RNA from six animals was combined.
Target Preparation and Array Hybridization—Total RNA was used to generate biotin labeled cRNA target as described (8) which was hybridized to the murine MG_U74Av2 probe arrays (Affymetrix, Santa Clara, Calif.) for 16 h at 45° C. Eleven biotin-labeled cRNAs at defined concentration were spiked into each hybridization and used to convert average difference values to frequencies expressed as parts per million.
The resulting data set was queried for genes whose regulation was dependent on ERα or ERβ.

[1] = 1st line of INDUCTIONS (by order 100060_l_at, kallikrein 8)
[2] = 2nd line of INDUCTIONS (by order 100061_f_at, kallikrein 8)
[3] = 3rd line of INDUCTIONS (by order 95775_f_at, kallikrein 1)
[4] = 4th line of INDUCTIONS (by order 104495_f_at, kallikrein 5)
[5] = 5th line of INDUCTIONS (by order 94716_f_at, kallikrein 9)
[6] = 6th line of INDUCTIONS (by order 100422_f_at, signal transducer and activator of transcription 5A)
[7] = 7th line of INDUCTIONS (by order 100423_f_at, signal transducer and activator of transcription 5A)
[8] = 8th line of INDUCTIONS (by order 101289_f_at, M17979)

In the case of `C[C@]12CC[C@@H]3c4ccc(O)cc4CC[C@H]3[C@@H]1CC[C@@H]2O` [E2, 17β-estradiol], the E2 [1] is reported as 37, the “Study 1 E2 Expr (/evansm/Kidney, mouse/Study 1, U74v2/KO E2 kidney (81038))” value [1] is reported as 37 and the “E2 Expr (/evansm/Kidney, mouse/Study 2, U74v2/ER bKO kidney E2 (82412))” value [1] is reported as 44. For the same compound, the “E2 Expr (/evansm/Kidney, mouse/Study 2, U74v2/WT kidney E2 (82408))” value [1] was 40, the “E2 Expr (/evansm/Kidney, mouse/Study 2, U74v2/WT kidney E2 (82409))” value [1] was 31 and the E2 [2] was 297. For the same compound, the “Study 1 E2 Expr (/evansm/Kidney, mouse/Study 1, U74v2/KO E2 kidney (81038))” value [2] was 370, the “E2 Expr (/evansm/Kidney, mouse/Study 2, U74v2/ER bKO kidney E2 (82412))” value [2] was 359 and the “E2 Expr (/evansm/Kidney, mouse/Study 2, U74v2/WT kidney E2 (82408))” value [2] was 338. The “E2 Expr (/evansm/Kidney, mouse/Study 2, U74v2/WT kidney E2 (82409))” value [2] was 201, the E2 [3] was 291 and the “Study 1 E2 Expr (/evansm/Kidney, mouse/Study 1, U74v2/KO E2 kidney (81038))” value [3] was 333. For the same compound, the “E2 Expr (/evansm/Kidney, mouse/Study 2, U74v2/ER bKO kidney E2 (82412))” value [3] was 361, the “E2 Expr (/evansm/Kidney, mouse/Study 2, U74v2/WT kidney E2 (82408))” value [3] was 345 and the “E2 Expr (/evansm/Kidney, mouse/Study 2, U74v2/WT kidney E2 (82409))” value [3] was 234. The E2 [4] was 130, the “Study 1 E2 Expr (/evansm/Kidney, mouse/Study 1, U74v2/KO E2 kidney (81038))” value [4] was 125 and the “E2 Expr (/evansm/Kidney, mouse/Study 2, U74v2/ER bKO kidney E2 (82412))” value [4] was 163. The “E2 Expr (/evansm/Kidney, mouse/Study 2, U74v2/WT kidney E2 (82408))” value [4] was 145, the “E2 Expr (/evansm/Kidney, mouse/Study 2, U74v2/WT kidney E2 (82409))” value [4] was 89 and the E2 [5] was 302. For the same compound, the “Study 1 E2 Expr (/evansm/Kidney, mouse/Study 1, U74v2/KO E2 kidney (81038))” value [5] was 372, the “E2 Expr (/evansm/Kidney, mouse/Study 2, U74v2/ER bKO kidney E2 (82412))” value [5] was 369 and the “E2 Expr (/evansm/Kidney, mouse/Study 2, U74v2/WT kidney E2 (82408))” value [5] was 329. For the same compound, the “E2 Expr (/evansm/Kidney, mouse/Study 2, U74v2/WT kidney E2 (82409))” value [5] was 230, the E2 [6] was 92 and the “Study 1 E2 Expr (/evansm/Kidney, mouse/Study 1, U74v2/KO E2 kidney (81038))” value [6] was 70. For the same compound, the “E2 Expr (/evansm/Kidney, mouse/Study 2, U74v2/ER bKO kidney E2 (82412))” value [6] was 104, the “E2 Expr (/evansm/Kidney, mouse/Study 2, U74v2/WT kidney E2 (82408))” value [6] was 104 and the “E2 Expr (/evansm/Kidney, mouse/Study 2, U74v2/WT kidney E2 (82409))” value [6] was 73. For the same compound, the E2 [7] was 72, the “Study 1 E2 Expr (/evansm/Kidney, mouse/Study 1, U74v2/KO E2 kidney (81038))” value [7] was 61 and the “E2 Expr (/evansm/Kidney, mouse/Study 2, U74v2/ER bKO kidney E2 (82412))” value [7] was 58. The “E2 Expr (/evansm/Kidney, mouse/Study 2, U74v2/WT kidney E2 (82408))” value [7] was 80, the “E2 Expr (/evansm/Kidney, mouse/Study 2, U74v2/WT kidney E2 (82409))” value [7] was 44 and the E2 [8] was 236. The “Study 1 E2 Expr (/evansm/Kidney, mouse/Study 1, U74v2/KO E2 kidney (81038))” value [8] was 282, the “E2 Expr (/evansm/Kidney, mouse/Study 2, U74v2/ER bKO kidney E2 (82412))” value [8] was 295 and the “E2 Expr (/evansm/Kidney, mouse/Study 2, U74v2/WT kidney E2 (82408))” value [8] was 264. For the same compound, the “E2 Expr (/evansm/Kidney, mouse/Study 2, U74v2/WT kidney E2 (82409))” value [8] was 178, the “E2 Expr (/evansm/Kidney, mouse/Study 1, U74v2/WT E2 kidney (81036))” value (92232_at, U88328, cytokine inducible SH-2 containing protein 3) was 45 and the “E2 Expr (/evansm/Kidney, mouse/Study 1, U74v2/WT E2 kidney (81036))” value (93104_at, Z16410, B-cell translocation gene 1, anti-proliferative) was 14. For the same compound, the “E2 Expr (/evansm/Kidney, mouse/Study 1, U74v2/WT E2 kidney (81036))” value (93374_at, AI836349, junctophilin 3) was 65, the “E2 Expr (/evansm/Kidney, mouse/Study 1, U74v2/WT E2 kidney (81036))” value (94694_at, M69196, proprotein convertase subtillsin/kexin type 1) was 27 and the “E2 Expr (/evansm/Kidney, mouse/Study 1, U74v2/WT E2 kidney (81036))” value (94716_f_at, M17962, kallikrein 9) was 380. The “E2 Expr (/evansm/Kidney, mouse/Study 1, U74v2/WT E2 kidney (81036))” value (94773_at, X01801, nerve growth factor, alpha) was 53, the “E2 Expr (/evansm/Kidney, mouse/Study 1, U74v2/WT E2 kidney (81036))” value (95559_at, AI838836, RIKEN cDNA 6330403K07 gene) was 74 and the “E2 Expr (/evansm/Kidney, mouse/Study 1, U74v2/WT E2 kidney (81036))” value (95775_f_at, V00829, kallikrein 1) was 370. The “E2 Expr (/evansm/Kidney, mouse/Study 1, U74v2/WT E2 kidney (81036))” value (95905_at, AI118078, Mm.24361) was 83, the “E2 Expr (/evansm/Kidney, mouse/Study 1, U74v2/WT E2 kidney (81036))” value (96215_f_at, AI53421, Mm.218360) was 206 and the “E2 Expr (/evansm/Kidney, mouse/Study 1, U74v2/WT E2 kidney (81036))” value (96591_at, U24703, reelin) was 43. The “E2 Expr (/evansm/Kidney, mouse/Study 1, U74v2/WT E2 kidney (81036))” value (96629_at, X04097, similar to TESTOSTERONE-REGULATED RP2 PROTEIN) was 55, the “E2 Expr (/evansm/Kidney, mouse/Study 1, U74v2/WT E2 kidney (81036))” value (97353_at, AI837497, AF9Q34 NGAP-like protein) was 29 and the “E2 Expr (/evansm/Kidney, mouse/Study 1, U74v2/WT E2 kidney (81036))” value (97519_at, X13986, secreted phosphoprotein 1) was 178. For the same compound, the “E2 Expr (/evansm/Kidney, mouse/Study 1, U74v2/WT E2 kidney (81036))” value (97520_s_at, X83569, neuroatin) was 157, the “E2 Expr (/evansm/Kidney, mouse/Study 1, U74v2/WT E2 kidney (81036))” value (98055_at, AW121500, bladder cancer associated protein homolog (human)) was 14 and the “E2 Expr (/evansm/Kidney, mouse/Study 1, U74v2/WT E2 kidney (81036))” value (98437_at, U83720, caspase 3, apoptosis related cysteine protease) was 39. For the same compound, the “E2 Expr (/evansm/Kidney, mouse/Study 1, U74v2/WT E2 kidney (81036))” value (98628_f_at, AF003695, hypoxia inducible factor 1, alpha subunit) was 288, the “E2 Expr (/evansm/Kidney, mouse/Study 1, U74v2/WT E2 kidney (81036))” value (99057_at, M12379, thymus cell antigen 1, theta) was 57 and the “E2 Expr (/evansm/Kidney, mouse/Study 1, U74v2/WT E2 kidney (81036))” value (99127_at, X61506, spinocerebellar ataxia 10 homolog (human)) was 66. The “E2 Expr (/evansm/Kidney, mouse/Study 1, U74v2/WT E2 kidney (81036))” value (99552_at, U79550, slug, chicken homolog) was 19, the “E2 Expr (/evansm/Kidney, mouse/Study 1, U74v2/WT E2 kidney (81036))” value (99632_at, U83902, MAD2 (mitotic arrest deficient, homolog)-like 1 (yeast)) was 27 and the “E2 Expr (/evansm/Kidney, mouse/Study 1, U74v2/WT E2 kidney (81036))” value (100060_l_at, M13500, kallikrein 8) was 39. For the same compound, the “E2 Expr (/evansm/Kidney, mouse/Study 1, U74v2/WT E2 kidney (81036))” value (100061_f_at, M13500, kallikrein 8) was 341, the “E2 Expr (/evansm/Kidney, mouse/Study 1, U74v2/WT E2 kidney (81036))” value (100407_at, L38580, galanin) was 98 and the “E2 Expr (/evansm/Kidney, mouse/Study 1, U74v2/WT E2 kidney (81036))” value (100422_f_at, AJ237939, signal transducer and activator of transcription 5A) was 151. For the same compound, the “E2 Expr (/evansm/Kidney, mouse/Study 1, U74v2/WT E2 kidney (81036))” value (100423_f_at, AJ237939, signal transducer and activator of transcription 5A) was 96, the “E2 Expr (/evansm/Kidney, mouse/Study 1, U74v2/WT E2 kidney (81036))” value (100440_f_at, U76758, ankyrin 1, erythroid) was 119 and the “E2 Expr (/evansm/Kidney, mouse/Study 1, U74v2/WT E2 kidney (81036))” value (100539_at, AI841279, ?HBACH Cytosolic acyl coenzyme A thioester hydrolase) was 16. The “E2 Expr (/evansm/Kidney, mouse/Study 1, U74v2/WT E2 kidney (81036))” value (100681_f_at, V00829) was 123, the “E2 Expr (/evansm/Kidney, mouse/Study 1, U74v2/WT E2 kidney (81036))” value (100719_f_at, J03677, kallikrein 16) was 119 and the “E2 Expr (/evansm/Kidney, mouse/Study 1, U74v2/WT E2 kidney (81036))” value (101289_f_at, M17979) was 305. For the same compound, the “E2 Expr (/evansm/Kidney, mouse/Study 1, U74v2/WT E2 kidney (81036))” value (101737_at, U12932, follicle stimulating hormone beta) was 19, the “E2 Expr (/evansm/Kidney, mouse/Study 1, U74v2/WT E2 kidney (81036))” value (101738_at, U25145, tutetnizing hormone beta) was 578 and the “E2 Expr (/evansm/Kidney, mouse/Study 1, U74v2/WT E2 kidney (81036))” value (101870_at, V00793) was 21.

Reference: US7371207B2 (Wyeth, priority 2002, dated 2008)
